# Measurements from patent US20090239881A1 (Boehringer Ingelheim International GmbH, priority 2006, published 2009).
# How the values were obtained:
# [1] = after ingestion; cited from earlier work
# [2] = system: Sexual Disorders and/or Dysfunctions; test: Studies of female patients suffering from Sexual Disorders; format: in vivo, human
# [3] = known use of flibanserin; cited from earlier work
# [4] = system: 5-HT2-receptor; settings: cited from earlier work
# [5] = target: T1, 5-HT1A receptor (Homo sapiens, UniProt P08908); settings: cited from earlier work
# T1 sequence (P08908 1-422): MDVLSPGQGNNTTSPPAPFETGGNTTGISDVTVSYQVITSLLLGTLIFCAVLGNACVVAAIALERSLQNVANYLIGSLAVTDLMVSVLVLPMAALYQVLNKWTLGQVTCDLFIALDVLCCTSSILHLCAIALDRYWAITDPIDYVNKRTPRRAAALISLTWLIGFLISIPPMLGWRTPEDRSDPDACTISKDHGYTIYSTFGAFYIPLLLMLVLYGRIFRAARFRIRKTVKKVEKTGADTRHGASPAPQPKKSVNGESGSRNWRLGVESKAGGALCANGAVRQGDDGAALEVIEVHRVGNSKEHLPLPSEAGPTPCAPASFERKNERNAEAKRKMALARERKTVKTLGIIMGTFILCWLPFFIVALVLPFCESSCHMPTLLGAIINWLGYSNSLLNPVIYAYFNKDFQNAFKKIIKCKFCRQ
SMILES,physiological half-life [1],effect on Sexual Disorders and/or Dysfunctions [2],side effects (sedation) [3],affinity for the 5-HT2-receptor [4],affinity for the 5-HT1A receptor [5]
Cn1c(=O)c2c(ncn2C)n(C)c1=O [caffeine],three and a half to six,,,,
"O=c1[nH]c2ccccc2n1CCN1CCN(c2cccc(C(F)(F)F)c2)CC1 [flibanserin, 1-[2-(4-(3-trifluoromethyl-phenyl)piperazin-1-yl)ethyl]-2,3-dihydro-1H-benzimidazol-2-one]",,positive effect,sometimes mild or moderate symptoms such as sedation may occur,shows affinity,shows affinity
